What was measured:
[1] = tested on: HBV-DNA; assay: HBV DNA content in HepG2.2.15 cells culture supernatant by real time-qPCR; type: cell-based; conditions: supernatant on the 8th day
Method: (§1) 2.1 Cell Line: HepG2.2.15 Cells
3.6 15 μL of the reaction mixture was added into each well of a 96-well PCR plate, followed by addition of 10 μL of sample DNA or HBV DNA standards into each well.
3.7 PCR reaction conditions: heating at 95° C. for 10 minutes, then denaturation at 95° C. for 15 seconds, extension at 60° C. for 1 minute, a total of 40 cycles.

[2] = tested on: HBsAg; conditions: read-out: HBsAg EC50; HepG2.2.15 cells, supernatant on the 8th day
Method: The HBV DNA content in HepG2.2.15 cells culture supernatant was determined by real-time quantitative qPCR assay (real time-qPCR), and the HBV surface antigen content was determined by enzyme linked immunosorbent assay (ELISA). The inhibitory effect of the compound on HBV was evaluated by the EC50 value of the compound.
as §1
3.1 HepG2.2.15 cells (4×10^4 cells/well) were seeded into a 96-well plate and incubated overnight at 37° C. under 5% CO2.
3.2 On the 2nd day, the compound was diluted into 8 concentrations with 3-fold gradient. The compounds with different concentrations were added into the culture wells in duplicate wells. The final concentration of DMSO in the culture medium was 0.5%, 10 μM ETV was used as a 100%/inhibition control, and 0.5% DMSO was used as a 0% inhibition control.
3.3 On the 5th day, the culture medium was replaced with a fresh medium containing the compound.
3.4 On the 8th day, the culture medium in the culture well was collected, and a part of the sample was taken for ELISA to determine the content of hepatitis B virus S antigen, a part of the sample was taken to extract DNA with a high-throughput DNA purification kit (Qiagen-51162).
3.8 Determination of hepatitis B virus S antigen content by ELISA
50 μL of sample and standard sample were taken and added into a reaction plate respectively, followed by addition of 50 μL of enzyme conjugate into each well, the mixture was shaken and well-mixed, and placed in a bath at 37° C. for 60 minutes. The plate was then washed with washing solution 5 times, followed by addition of 50 μL of illuminating substrate into each well, the mixture was well-mixed and allowed to react at room temperature for 10 minutes in the dark. Chemiluminescence intensity was determined by a ELISA.
Calculation of the percentage of inhibition:% Inh.=(1−value of sample/value of DMSO control)×100
Calculation of EC50: The 50% inhibitory concentration (EC50) value of the compound on HBV was calculated by GraphPad Prism software.

[3] = tested on: HBV; assay: In vivo pharmacodynamic study of hydrodynamic injection mouse HBV model (HDI-HBV) via tail vein; design: species or system Balb/c mice; conditions: mouse plasma
Method: Anti-hepatitis B virus activity of the compound of the embodiment in vivo was evaluated by HDI mice model.
Balb/c mice, 10% HP—F-CD as vehicle, test compound, RG7834, ETV (Entecavir), pAAV2-HBV 1.3mer plasmid (extracted with Qiagen EndoFree Plasmid Giga kit), main reagents including QIAamp96 DNA kit and FasStart Universal Probe Mast (ROX). The main instruments used in this experiment included centrifuge (Beckman Allegra X-15R), tissue grinder (QIAGEN-Tissue lyser II) and spectrophotometer (Thermo-NANODROP 1000).
b) On day 0, all mice were subjected to hydrodynamic injection with HBV plasmid DNA solution via tail vein. The plasmid DNA was pre-treated with sterile physiological saline before injection and stored at 4° C. until use. Plasmid DNA solution was injected via the tail vein at a dose of 8% of the body weight of the mouse within 5 seconds.
c) On the 1st day to the 7th day, the mice were administered with the compound or solvent by oral gavage for 7 days.
d) On the 1st day, 3rd day and 5th day, the blood was collected from the submandibular vein of the mice, and heparin sodium was used as an anticoagulant. The blood sample was centrifuged at 7,000×g, 4° C. to prepare the plasma for the determination of HBV DNA.
e) On the 7^h day, all mice were euthanized by CO2. The blood was collected from the heart to prepare plasma, and the liver tissue was collected. Two left hepatic lobe were isolated, the size of which was 70-100 mg, and were frozen by liquid nitrogen immediately after collection. One of the hepatic lobe was used for HBV DNA detection, and the other was used for backup.
The content of HBsAg in the serum of the mice was determined by ELISA (enzyme linked immunosorbent assay). The experimental procedure refers to the specification of HBsAg ELISA kit.
The inhibitory activity of the test compound on HBV replication on the mouse HDI model was determined by measuring the content of HBsAg in the plasma of the mice.

[4] = tested on: HBV; assay: Anti-HBV activity on the hepatitis B virus mouse model (AAV-HBV); type: in vivo, C57BL/6 mice; conditions: 10 mg/kg, PO
Method: The AAV vector-mediated HBV infected mouse model is a fast and efficient HBV model. Using the high hepatotropism of the AAV vector, the recombinant adeno-associated type 8 virus carrying 1.3 copies of the HBV genome (rAAV8-1.3HBV) is injected into the tail vein of mice, which can efficiently introduce the carried 1.3 copy HBV genome into hepatocytes. Due to the characteristics of the AAV viral vector, the vector mediated by it can express for a long time. The AAV/HBV model can continuously replicate HBV DNA and express HBsAg and HBeAg in the liver of the mice.
The anti-HBV efficacy of the test compound in vivo was evaluated by determining the content of HBsAg in the serum of the mice after treatment with the test compound on AAV/HBV mouse mode.
C57BL/6 mice, 10% HP-f-CD as vehicle, reference compound TDF (Tenofovir), test compound, recombinant virus rAAVS-1.3HBV, main reagents of the experiment including QIAamp96 DNA kit and TaqMan® Universal PCR Master Mix, Hepatitis B Virus Surface Antigen Detection Kit, instruments including: centrifuge (Beckman Allegra X-15R), tissue grinder (QIAGEN-Tissue lyser II) and spectrophotometer (Thermo-NANODROP 1000).
a) All mice were orally administered on the 28th day after the virus injection, and the day was set as day 0. Submaxillary blood of all mice was collected for serum collection before administration. The mice were administered once a day for four weeks.
b) Submaxillary blood of all mice was collected for serum collection twice a week, the volume of the blood collected each time was approximately 100 μL.
c) On the 28th day, all mice were euthanized and the blood was collected from the heart for serum collection.
The content of HBsAg in the serum of the mice was determined by ELISA. The experimental procedure refers to the specification of HBsAg ELISA kit.
a) The anti-HBV activity of the test compound on AAV/HBV mice model was evaluated by determining the content of HBsAg in the plasma of the mice.

[5] = 14-day pre-toxicology tolerance test on rat; type: in vivo; conditions: once a day for 14 days, male rats
Method: [table] A total of 21 animals in this experiment were randomly divided into 7 groups. The animals were orally administered with the test compounds once a day for 14 consecutive days, and the toxicity was evaluated. Animal necropsy and tissue would be taken from the fixative, repaired, dehydrated, embedded, sectioned, stained and microscopically examined. These tissues included the liver, heart and lung of all animals, and spleen, stomach, duodenum, jejunum, ileum, and kidney of partial animals.

[6] = tested on: hepatitis B; conditions: woodchuck model, RG7834 as a single drug; cited from earlier work

COCCCOc1cc2c(cc1Cl)-c1cc(=O)c(C(=O)O)cn1[C@H](C(C)(C)C)CO2 [Embodiment 24]
EC50 [1]: 457 pM | EC50 [2]: 743 pM

COCCCOc1cc2c(cc1Br)-c1cc(=O)c(C(=O)O)cn1[C@H](C(C)(C)C)CO2 [Embodiment 25]
EC50 [1]: < 457 pM | EC50 [2]: 769 pM

COCCCOc1cc2c(cc1C#N)-c1cc(=O)c(C(=O)O)cn1[C@H](C(C)C)CO2 [Embodiment 26]
EC50 [1]: 2190 pM | EC50 [2]: 3330 pM

COCCCOc1cc2c(cc1C)-c1cc(=O)c(C(=O)O)cn1[C@H](C(C)(C)C)CO2 [Embodiment 27]
EC50 [1]: 1100 pM | EC50 [2]: 2510 pM

COCCCOc1cc2c(cc1C1CC1)-c1cc(=O)c(C(=O)O)cn1[C@H](C(C)(C)C)CO2 [Embodiment 28]
EC50 [1]: 508 pM | EC50 [2]: 718 pM

COCCCOc1cc2c(cc1C(C)=O)-c1cc(=O)c(C(=O)O)cn1[C@H](C(C)C)CO2 [Embodiment 29]
EC50 [1]: 507 pM | EC50 [2]: 1340 pM

C=C1[C@H](CO)[C@@H](O)C[C@@H]1n1cnc2c(=O)[nH]c(N)nc21 [Entecavir]
Log HBsAg (IU/mL) (Ave. value) ([3]; dosing time day 1, 0.1 mg/kg QD gavage): 3.66 IU/mL | Log HBsAg (IU/mL) (Ave. value) ([3]; dosing time day 3, 0.1 mg/kg QD gavage): 4.32 IU/mL | Log HBsAg (IU/mL) (Ave. value) ([3]; dosing time day 5, 0.1 mg/kg QD gavage): 4.01 IU/mL | Log HBsAg (IU/mL) (Ave. value) ([3]; dosing time day 7, 0.1 mg/kg QD gavage): 2.46 IU/mL

COCCCOc1cc2c(cc1OC)-c1cc(=O)c(C(=O)O)cn1[C@H](C(C)C)C2 [RG7834, reference compound]
Log HBsAg (IU/mL) (Ave. value) ([3]; dosing time day 1, 30 mg/kg QD gavage): 3.75 IU/mL | Log HBsAg (IU/mL) (Ave. value) ([3]; dosing time day 3, 30 mg/kg QD gavage): 4.08 IU/mL | Log HBsAg (IU/mL) (Ave. value) ([3]; dosing time day 5, 30 mg/kg QD gavage): 3.59 IU/mL | Log HBsAg (IU/mL) (Ave. value) ([3]; dosing time day 7, 30 mg/kg QD gavage): 1.10 IU/mL | HBsAg content in the plasma of the mice ([4]; day 4): 3.54 IU/mL | HBsAg content in the plasma of the mice ([4]; day 7): 3.58 IU/mL | HBsAg content in the plasma of the mice ([4]; day 11): 3.70 IU/mL | HBsAg content in the plasma of the mice ([4]; day 14): 3.49 IU/mL | HBsAg content in the plasma of the mice ([4]; day 18): 3.70 IU/mL | HBsAg content in the plasma of the mice ([4]; day 21): 3.52 IU/mL | HBsAg content in the plasma of the mice ([4]; day 25): 3.50 IU/mL | HBsAg content in the plasma of the mice ([4]; day 28): 3.66 IU/mL | HBsAg content in the plasma of the mice ([4]; day −1): 4.56 IU/mL | histopathological changes associated with the test compound ([5]; high dose group (1000 mg/kg)): mild myocardial degeneration in the heart, mild degeneration of central hepatic cells in the small lobules of the liver, mild decrease of white pulp lymphocytes in the spleen, and moderate acute inflammation of the duodenal mucosa | histopathological changes associated with the test compound ([5]; medium and low dose groups (300 and 100 mg/kg), heart, liver and lung examined): no histopathological changes associated with the test compound were observed | reduction of HBV-DNA [6]: 1.7 Log | reduction of surface antigens [6]: 2.57 Log

Source: patent US20200197409A1, “HEPATITIS B VIRUS SURFACE ANTIGEN INHIBITOR” (FUJIAN COSUNTER PHARMACEUTICAL CO., LTD., priority 2017, published 2020)
